Experimental data from publication PMC7754465, “Multiparameter Kinetic Analysis for Covalent Fragment Optimization by Using Quantitative Irreversible Tethering (qIT)” (Chembiochem, 2020).

Biological target: T1, Cdk2(ES) (Homo sapiens, UniProt P24941, C177A/F80C)
T1 construct: GST (N, cleaved yes); made in house; host or cells: E. coli Tuner(DE3)
Test: concentration-dependent qIT with hyperbolic regression (Ki, kinact)
Format: binding
Conditions: roughly linear dependency up to 500 μM
Experimental: Next we sought to carry out comprehensive kinetic analysis of the covalent binding to better understand the covSAR trends. Accordingly, the concentration dependency for the rate of reaction between Cdk2(ES) and key acrylamides 1, 6, 9 and 11 were determined using qIT (Figure 7c). To maintain pseudo‐first‐order reaction kinetics and stay within the solubility limits of the fragments, ligands were titrated from 25 to 500 μM. […] Indeed, comparing the binding conformations of the merged (9 and 11) and parent (1 and 6) fragments, we observe a subtle shift in the position of the core scaffolds and the orientation of the acrylamide link that likely explains the jump in potency that resulted from fragment merging. Overall, comparing acrylamides 9 and 11, we observe in a 3.7‐fold increase in k inact/K i and a 4.3‐fold increase in REF, and the consistency between these two orthogonal metrics of covalent fragment potency is encouraging for future applications of qIT to covalent fragment optimization.
H. Intact-protein mass spectrometry
Protein-mass data were obtained on a Waters micromass LC-TOF mass spectrometer in positive ion mode using electrospray ionization. Samples were chromatographed using an Acquity UPLC protein BEH C4 column (2.1 mm × 50 mm, 2.7 µm) with a flow rate of 30 µL/min. The injection volume was 5 µL of protein solution (5 µM) in 30 mM ammonium bicarbonate buffer con-taining 0.5% formic acid and 20% MeOH. The gradient used was 100% mobile phase A (0.1% formic acid in water/MeOH (19:1)) ramping linearly to 90% mobile phase B (0.1% formic acid in MeOH) over 5 minutes. The spectra were acquired from 500 to 2500 Da and deconvolution was performed with MassLynx (Waters), using the maximum entropy algorithm, over a mass range of […] with a mass step of 0.75. […]
Cdk2(WT) or Cdk2(ES) (1 mg) was sequentially incubated with aliquots of CAK1 (3 × 0.05 mg) at r.t. for 4 hours at a time in 1.5 mL of a 30 mM Tris/HCl buffer (pH 7.5) containing 10 mM MgCl2, 10 mM ATP and 3 mM DTT. As CAK1 appeared to be-come rapidly inactivated in the presence of pCdk2, three repetitions were required to drive the reaction to completion. The resulting solution was incubated with 50 µL of glutathione-Sepharose beads and filtered to remove remaining CAK1.
Kinase assays were performed by coupling the conversion of ATP into ADP to the oxidation of NADH (Abs = 340 nm) into NAD+, mediated by lactate dehydrogenase (LDH) and pyruvate kinase (PK). WT, mutant or ligand-conjugated pCdk2 (12.5 or 50 nM) was preincubated with Cyclin A2 (20 nM) in a buffer containing 50 mM Tris/HCl, 10 mM MgCl2, 5 mM DTT, 1 mM phosphoenolpyruvate, 0.24 mM NADH, 10 U mL-1 LDH, 14 U mL-1 PK and 5% DMSO at 37 °C for 30 minutes. Reactions were initiated by addition of 0.5 mM ATP and 0.24 mM substrate peptide (PKTPKKAKKL) and the absorbance at 340 nm was moni-tored for two hours. Assays were conducted at 37 °C and carried out in clear 384-well plates (Nunc) using a SpectraMax i3x plate reader (Molecular Devices) with a final volume of 20 µL in each well. After plotting Abs 340 against time, enzyme velocity was measured from the gradient during the linear phase of product accumulation.
Q. Concentration dependent qIT
The rate of reaction (kobs) for the reaction between each acrylamide (25, 50, 125, 250 and 500 µM) with Cdk2(ES) (5 µM) was determined us qIT (see D. Rate Determination by qIT) in duplicate. The average kobs was plotted against acrylamide concen-tration and hyperbolic regression analysis performed using Prism 8.0 software (GraphPad) to derive kinact and Ki.

Row | Structure (SMILES) | Ki
1 | C=CC(=O)N1CCCc2cc(C(=O)OC)ccc21 [compound 1] | > 1000 µM
2 | C=CC(=O)N1CCN(CC)c2ccccc21 [compound 6] | > 1000 µM
